System: human RIG-1 promoter (RIG-PROM-LUC reporter)
Test: RIG-PROM-LUC luciferase reporter activity in response to inducers in transfected human cells
Format: cell-based

Structure (SMILES): CC1=C(/C=C/C(C)=C/C=C/C(C)=C/C(=O)O)C(C)(C)CCC1 [retinoic acid, all Trans-retinoic acid]
- activation of promoter activity (RIG-PROM-LUC) (FM516 and HeLa cells, IFN-β induction greater than PolyIC:PolyIC and least with retinoic acid, FIG. 2): robust activation
- response of reporter compared to untreated controls (depending on the cell line (FM516, T47D, HeLa, PHFA), inducer 6 h then overnight incubation): around 1.5 fold

— patent US20080108067A1, “Cloning of the retinoic acid inducible gene-1 promoter and uses thereof” (priority 2004, published 2008)
